Measurements published in patent US20130012491A1, “PYRIMIDINE DERIVATIVES FOR USE AS SPHINGOSINE 1-PHOSPHATE 1 (S1P1) RECEPTOR AGONISTS” (GLAXO GROUP LIMITED, priority 2010, published 2013).
Counter-ions that a name gives are not always drawn.

Tested on: circulating lymphocytes
Assay: not given
Conditions: animals and man; cited from earlier work

Compound	effect on circulating lymphocytes
CCCCCCCCc1ccc(CCC(N)(CO)CO)cc1 [FTY720]	reduce circulating lymphocytes

Tested on: animal models of immune disorders
Assay: not given
Conditions: cited from earlier work

Compound	disease modulating activity
CCCCCCCCc1ccc(CCC(N)(CO)CO)cc1 [FTY720]	disease modulating activity

Tested on: S1P3 knock-out animals
Assay: not given
Conditions: unlike wild type mice; cited from earlier work

Compound	bradycardia
CCCCCCCCc1ccc(CCC(N)(CO)CO)cc1 [FTY720]	do not demonstrate bradycardia

Molecular target: T1, S1P3 (human Endothelial Differentiation G-protein Coupled Receptor 3 (EDG3)) (Homo sapiens, UniProt Q99500)
T1 construct: expressed in transfected cells; host or cells: GeneBLAzer EDG3-Ga15-NFAT-bla HEK 293T cells
T1 sequence (Q99500 whole entry): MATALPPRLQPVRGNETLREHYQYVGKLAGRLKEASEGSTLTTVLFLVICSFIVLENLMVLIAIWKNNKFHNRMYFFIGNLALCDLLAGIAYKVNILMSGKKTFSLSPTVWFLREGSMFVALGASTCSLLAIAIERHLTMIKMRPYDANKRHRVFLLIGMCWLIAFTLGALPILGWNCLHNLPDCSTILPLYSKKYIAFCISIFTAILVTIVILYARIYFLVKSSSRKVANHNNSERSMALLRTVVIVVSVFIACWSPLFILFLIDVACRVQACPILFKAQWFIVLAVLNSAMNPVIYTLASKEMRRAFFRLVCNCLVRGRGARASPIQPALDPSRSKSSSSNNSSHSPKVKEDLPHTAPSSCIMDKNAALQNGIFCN
Assay: S1P3 GeneBlazer assay
Type: cell-based
Conditions: agonist, EDG3-Ga15-NFAT-bla HEK 293T cells, beta-lactamase FRET readout
Experimental: GeneBLAzer EDG3-Ga15-NFAT-bla HEK 293T cells (contain the human Endothelial Differentiation G-protein Coupled Receptor 3 (EDG3) and a beta-lactamase reporter gene under control of a […] response element and a promiscuous G Protein, Ga15, stably integrated into the GeneBLAzer Ga15-NFAT-bla HEK 293T cell line) were harvested from growth medium and suspended in assay medium (90% DMEM, 10% Charcoal-stripped FBS, 0.1 mM NEAA, 25 mM HEPES (pH 7.3), 100 U/ml penicillin, 100 μg/ml streptomycin) at a density of ˜200,000 cells/ml.
All test compounds were dissolved in DMSO at a concentration of 10 mM and were prepared in 100% DMSO to provide 10 point dose response curves. Test compounds prepared by Bravo (Velocity11) were added to wells in columns 2-11 and 13-22; DMSO was added to wells in columns 12 and 23 as unstimulated controls and assay medium was added to wells in columns 1 and 24 as cell-free controls. An S1P3 agonist was added to wells in row 2, columns 2-11 as stimulated controls and test compounds were added to wells in row 2, columns 13-22 and rows 3-15, columns 2-11/13-22 (row 1 and 16 were empty and not used). Compounds in solution were added to the assay plate (Greiner 781090) using an Echo (Labcyte) dose-response program (50 nl/well). The unstimulated and cell-free controls were loaded with 50 nl/well pure DMSO to ensure that the DMSO concentration was constant across the plate for all assays.
50 μl of the cell suspension was added to each well in columns 2-23 of the plate (˜10,000 cells per well). 50 μl of assay medium was added to each well in the cell-free controls (columns 1 and 24). The cells were incubated overnight at 37° C./5% CO2.
10 μl of 6× substrate mixture (LiveBLAzer™-FRET B/G substrate (CCF4-AM) Cat # K1096 from Invitrogen, Inc.) was added to each well using Bravo and the plates incubated at room temperature for 2 h in the dark. The plate was finally read on EnVision using one excitation channel (409 nm) and two emission channels (460 nm and 530 nm).
The blue/green emission ratio (460 nm/530 nm) was calculated for each well, by dividing the background-subtracted Blue emission values by the background-subtracted Green emission values. The dose response curve is based on sigmoidal dose-response model. All ratio data was normalized based upon the maximum emission ratio of positive control and minimum emission ratio of negative control (DMSO) on each plate. The intrinsic activity (IA) of each compound would be the normalized percentage of its maximum response after curve fitting.

Compound	EC50
CCc1c(CNCCC(=O)O)cccc1-c1cnc(-c2ccc(OC(C)C)c(C(F)(F)F)c2)nc1 [Example 10, N-[(2-ethyl-3-{2-[4-[(1-methylethyl)oxy]-3-(trifluoromethyl)phenyl]-5-pyrimidinyl}phenyl)methyl]-b-alanine]	≤ 2 µM
CCc1c(CN2CC(C(=O)O)C2)cccc1-c1cnc(-c2ccc(OC(C)C)c(C(F)(F)F)c2)nc1 [Example 11, 1-[(2-ethyl-3-{2-[4-[(1-methylethyl)oxy]-3-(trifluoromethyl)phenyl]-5-pyrimidinyl}phenyl)methyl]-3-azetidinecarboxylic acid]	≤ 10 µM
CCc1c(CN2CCC(C(=O)O)CC2)cccc1-c1cnc(-c2ccc(OC(C)C)c(C(F)(F)F)c2)nc1 [Example 13, 1-[(2-ethyl-3-{2-[4-[(1-methylethyl)oxy]-3-(trifluoromethyl)phenyl]-5-pyrimidinyl}phenyl)methyl]-4-piperidinecarboxylic acid]	≤ 10 µM
CCc1c(-c2cnc(-c3ccc(OC(C)C)c(Cl)c3)nc2)cccc1C1CCN(CCC(=O)O)CC1 [Example 15, 3-{4-[3-(2-{3-chloro-4-[(1-methylethyl)oxy]phenyl}-5-pyrimidinyl)-2-ethylphenyl]-1-piperidinyl}propanoic acid trifluoroacetate]	≤ 10 µM
CCc1c(CCN(C)CC(=O)O)cccc1-c1cnc(-c2ccc(OC(C)C)c(Cl)c2)nc1 [Example 27, N-{2-[3-(2-{3-chloro-4-[(1-methylethyl)oxy]phenyl}-5-pyrimidinyl)-2-ethylphenyl]ethyl}-N-methylglycine]	≤ 10 µM
CCc1c(CCN2CC(C(=O)O)C2)cccc1-c1cnc(-c2ccc(OC(C)C)c(Cl)c2)nc1 [Example 28, N-{2-[3-(2-{3-chloro-4-[(1-methylethyl)oxy]phenyl}-5-pyrimidinyl)-2-ethylphenyl]ethyl}-3-azetidinecarboxylic acid]	≤ 2 µM
CCc1c(CCN2CCC(C(=O)O)C2)cccc1-c1cnc(-c2ccc(OC(C)C)c(Cl)c2)nc1 (stereo not shown) [Example 29, 1-{2-[3-(2-{3-chloro-4-[(1-methylethyl)oxy]phenyl}-5-pyrimidinyl)-2-ethylphenyl]ethyl}-3-pyrrolidinecarboxylic acid]	≤ 2 µM
CCc1c(CCN2CC[C@H](C(=O)O)C2)cccc1-c1cnc(-c2ccc(OC(C)C)c(Cl)c2)nc1 [Example 30, (3S)-1-{2-[3-(2-{3-chloro-4-[(1-methylethyl)oxy]phenyl}-5-pyrimidinyl)-2-ethylphenyl]ethyl}-3-pyrrolidinecarboxylic acid]	≤ 2 µM
CCc1c(CCN2CCCC(C(=O)O)C2)cccc1-c1cnc(-c2ccc(OC(C)C)c(Cl)c2)nc1 (stereo not shown) [Example 31, 1-{2-[3-(2-{3-chloro-4-[(1-methylethyl)oxy]phenyl}-5-pyrimidinyl)-2-ethylphenyl]ethyl}-3-piperidinecarboxylic acid]	≤ 10 µM
CCc1c(CCN2CCC[C@H](C(=O)O)C2)cccc1-c1cnc(-c2ccc(OC(C)C)c(Cl)c2)nc1 [Example 32, (3S)-1-{2-[3-(2-{3-chloro-4-[(1-methylethyl)oxy]phenyl}-5-pyrimidinyl)-2-ethylphenyl]ethyl}-3-piperidinecarboxylic acid]	≤ 10 µM
CCc1c(CCN2CCC(C(=O)O)CC2)cccc1-c1cnc(-c2ccc(OC(C)C)c(Cl)c2)nc1 [Example 33, 1-{2-[3-(2-{3-chloro-4-[(1-methylethyl)oxy]phenyl}-5-pyrimidinyl)-2-ethylphenyl]ethyl}-4-piperidinecarboxylic acid]	≤ 2 µM
CCc1c(CCN(C)CCC(=O)O)cccc1-c1cnc(-c2ccc(CC(C)C)c(C#N)c2)nc1 [Example 35, N-[2-(3-{2-[3-cyano-4-(2-methylpropyl)phenyl]-5-pyrimidinyl}-2-ethylphenyl)ethyl]-N-methyl-b-alanine]	≤ 10 µM

The next lines start with the values.

EC50	Compound
≤ 10 µM	CCc1c(CCN(C)CC(=O)O)cccc1-c1cnc(-c2ccc(CC(C)C)c(C#N)c2)nc1 [Example 34, N-[2-(3-{2-[3-cyano-4-(2-methylpropyl)phenyl]-5-pyrimidinyl}-2-ethylphenyl)ethyl]-N-methylglycine trifluoroacetate]
≤ 10 µM	CCc1c(CCN2CC(C(=O)O)C2)cccc1-c1cnc(-c2ccc(CC(C)C)c(C#N)c2)nc1 [Example 36, 1-[2-(3-{2-{3-cyano-4-(2-methylpropyl)phenyl}-5-pyrimidinyl}-2-ethylphenyl)ethyl]-3-azetidinecarboxylic acid]
≤ 10 µM	CCc1c(CCN2CCC(C(=O)O)C2)cccc1-c1cnc(-c2ccc(CC(C)C)c(C#N)c2)nc1 (stereo not shown) [Example 37, 1-[2-(3-{2-[3-cyano-4-(2-methylpropyl)phenyl]-5-pyrimidinyl}-2-ethylphenyl)ethyl]-3-pyrrolidinecarboxylic acid]
≤ 10 µM	CCc1c(CCN2CCCC(C(=O)O)C2)cccc1-c1cnc(-c2ccc(CC(C)C)c(C#N)c2)nc1 (stereo not shown) [Example 38, 1-[2-(3-{2-[3-cyano-4-(2-methylpropyl)phenyl]-5-pyrimidinyl}-2-ethylphenyl)ethyl]-3-piperidinecarboxylic acid]
≤ 10 µM	CCc1c(CCN2CCC[C@H](C(=O)O)C2)cccc1-c1cnc(-c2ccc(CC(C)C)c(C#N)c2)nc1 [Example 39, (3S)-1-[2-(3-{2-[3-cyano-4-(2-methylpropyl)phenyl]-5-pyrimidinyl}-2-ethylphenyl)ethyl]-3-piperidinecarboxylic acid]
≤ 2 µM	CCc1c(CCN2CCC(C(=O)O)CC2)cccc1-c1cnc(-c2ccc(CC(C)C)c(C#N)c2)nc1 [Example 40, 1-[2-(3-{2-[3-cyano-4-(2-methylpropyl)phenyl]-5-pyrimidinyl}-2-ethylphenyl)ethyl]-4-piperidinecarboxylic acid]

Tested on: not given
Assay: not given
Conditions: clinical studies, first 24 hours of treatment; cited from earlier work

Compound	bradycardia
CCCCCCCCc1ccc(CCC(N)(CO)CO)cc1 [FTY720]	results in bradycardia
